Data published in patent US20250206713A1, “2-[(2-OXO-4-PHENYL-2H-CHROMEN-7-YL)OXY] PROPANAMIDO DERIVATIVES” (LUNELLA BIOTECH, INC., priority 2022, published 2025).
“Also recorded” adds a separate entry of the source. Where two headings read alike, the source gives them in different places.

Experiments:
MCF-7 cells [1] = experiment: SRB assay (cell viability) on MCF-7 cells; conditions: for concentration at which cytotoxicity towards MCF-7 cells starts (SRB assay): 72 hours; for cytotoxicity towards MCF-7 cells (SRB assay): in words
Procedure: (§3) The human breast adenocarcinoma cell line MCF-7 was from the American Type Culture Collection (ATCC). hTERT-BJ1 cells were from Clontech, Inc. MCF-7 and hTERT-BJ 1 cells were grown in DMEM supplemented with 10% fetal bovine serum, GlutaMAX and 1% penicillin-streptomycin and incubated at 37 C in a humidified 5% C02 incubator. The medium was changed 2-3 times/week.
(§4) The inventors initially used the sulphorhodamine (SRB) assay, which is based on the measurement of cellular protein content. After treatment for 72 hours in 96-well plates, cells were fixed with 10% trichloroacetic acid (TCA) for 1 hour in the cold room, and were dried overnight at room temperature. Then, cells were incubated with SRB for 15 min, washed twice with 1% acetic acid, and air dried for at least 1 hour. Finally, the protein-bound dye was dissolved in a 10 mM Tris, pH 8.8 solution and read using the plate reader at 540-nm. […] Prominent cytotoxicity was defined as fewer than 30% of cells still on the plate.

MCF-7 cells [2] = experiment: 3D anchorage independent growth assay (mammosphere formation assay); type: cell-based, human; conditions: for IC50: MCF-7 mammosphere formation, approximate, read from figure, read-out: IC50 against MCF-7 cells (mammosphere formation); for inhibition of MCF-7 cells across tested concentrations (mammosphere formation): in words, concentration range as given in the value; for potency relative to Compound [I], MCF-7 mammosphere formation: times / fold versus Compound [I]
Procedure: The medium was changed 2-3 times/week.
3D Anchorage Independent Growth Assay: This assay is also referred to as the mammosphere formation assay. A single-cell suspension was prepared using enzymatic, and manual disaggregation (25-g needle). Then, cells were plated at a density of 500 cells/cm2 in mammosphere medium (DMEM-F12+1X B-27 Plus Supplement+20 ng/ml EGF+Pen/Strep) under non-adherent conditions, in culture dishes pre-coated with (2-hydroxyethylmethacrylate) (poly-HEMA, Sigma Aldrich Inc.), called “mammosphere plates.” Cells were grown for 5 days and maintained in a humidified incubator at 37° C. After 5 days of culture, 3D-mammospheres >50 μm were counted using an eye piece (“graticule”), and the percentage of cells plated which formed spheres was calculated and is referred to as percent mammosphere formation, and was normalized to one (1=100% MFE). 3D mammosphere formation efficiency (MFE) was analyzed in both the ATP-low and ATP-high sub-populations of cells. All 3D mammosphere experiments were performed in triplicate, at least 3 times independently.

BJ1-hTERT cells [3] = experiment: SRB assay (cell viability) on BJ1-hTERT cells; conditions: 72 hours
Procedure: as §3, §4

BJ1-hTERT cells [4] = test system: BJ1-hTERT cells
Procedure: as §3, §4

MCF-7 cells [5] = test system: MCF-7 cells
Procedure: as §3, §4

chick embryo = experiment: CAM assay, chick embryo toxicity; type: in vivo, chicken; conditions: chick embryos; for Alive / Dead: of 18 total
Procedure: (§1) Further evaluation of both efficacy and toxicity was performed on human breast tumors initiated from the MDA-MB-231 cell line in chicken embryos using the chick chorioallantoic membrane assay (“CAM Assay”) available from Inovotion (Cambridge, Massachusetts). […] An inoculum of 1×10^6 MDA-MB-231 cells was added onto the CAM of each egg (day E9) and then eggs were randomized into groups. On day E10, tumors were detectable and they were then treated daily for 8 days with vehicle alone (1% DMSO in PBS), or a compound of the present approach. After 8 days of drug administration, on day E18 all tumors were weighed, and the lower CAM was collected to evaluate the number of metastatic cells, as analyzed by qPCR with specific primers for Human Alu sequences.

adherent MCF7 cells [6] = experiment: Glycolytic function analysis (ECAR); type: cell-based, human; conditions: 2.5 μM, versus control
Procedure: (§2) FIGS. 11A-D show mitochondrial respiration, basal respiration, maximal respiration, and ATP production results for metabolic flux analysis of adherent MCF7 cells were treated with Compound [III] at 2.5 μM. After treatment, the mitochondrial oxygen consumption rate (OCR) was measured using the Seahorse XFe96 analyzer. Data is expressed as percentage of OCR versus control.
FIGS. 12A-D show the results of glycolytic function analysis for treatment with Compound [III] at 2.5 μM. Glycolytic function, basal glycolysis, induced glycolysis, and compensatory glycolysis, respectively. […] All data was normalized for cell number. Statistical analysis was conducted using one-way ANOVA.

[7] = test system: human breast tumors initiated from the MDA-MB-231 cell line in chicken embryos; experiment: CAM assay, tumor growth; type: in vivo; conditions: MDA-MB-231 tumors, treated daily for 8 days, different concentrations
Procedure: as §1

adherent MCF7 cells [8] = experiment: Metabolic flux analysis, mitochondrial oxygen consumption rate (Seahorse XFe96); type: cell-based, human; conditions: 2.5 μM, versus vehicle-alone control
Procedure: as §2

[9] = test system: MDA-MB-231 cancer cell metastasis; experiment: CAM assay, metastatic invasion (qPCR for Human Alu sequences in lower CAM); type: in vivo; conditions: MDA-MB-231, lower CAM, treated daily for 8 days, different concentrations
Procedure: as §1

CCCCCCCCCCCCCC(=O)Nc1ccc(-c2cc(=O)oc3cc(O[C@H](C)C(=O)N4CCC[C@H](C(=O)O)C4)ccc23)c(Cl)c1 [Compound [II], (3S)-1-[(2R)-2-[4-[2-Chloro-4-(tetradecanoylamino)phenyl]-2-oxo-chromen-7-yl]oxypropanoyl]piperidine-3-carboxylic acid]
concentration at which cytotoxicity towards MCF-7 cells starts (SRB assay) (MCF-7 cells [1]): ≥ 50 µM
IC50 (MCF-7 cells [2]; Homo sapiens, MCF7): ~5 µM
inhibition at 10 µM (MCF-7 cells [2]; Homo sapiens, MCF7, at 10 μM): > 50%
inhibition at 100 µM (MCF-7 cells [2]; Homo sapiens, MCF7): 100%
inhibition of MCF-7 cells across tested concentrations (mammosphere formation) (MCF-7 cells [2]): dose-dependent inhibition of MCF-7 cells at all tested concentrations, ranging from 0.1 μM to 100 μM
potency relative to Compound [I], MCF-7 mammosphere formation (MCF-7 cells [2]): 10
concentration at which cytotoxicity towards BJ1-hTERT cells starts (SRB assay) (BJ1-hTERT cells [3]): ≥ 50 µM

CCCCCCCCCCCCCC(=O)Nc1cc(F)ccc1-c1cc(=O)oc2cc(O[C@H](C)C(=O)N(CC)C(=O)NCCCN(C)C)ccc12 [Compound [IV], N-[2-[7-[(1R)-2-[3-(Dimethylamino)propylcarbamoyl-ethyl-amino]-1-methyl-2-oxo-ethoxy]-2-oxo-chromen-4-yl]-5-fluoro-phenyl]tetradecanamide]
concentration at which cytotoxicity towards MCF-7 cells starts (SRB assay) (MCF-7 cells [1]): ≥ 5 µM
inhibition at 2.5 µM (MCF-7 cells [2]; Homo sapiens, MCF7, at 2.5 μM): > 50%
inhibition of MCF-7 cells (mammosphere formation) (MCF-7 cells [2]; at 10 μM): near complete inhibition
inhibition of MCF-7 cells across tested concentrations (mammosphere formation) (MCF-7 cells [2]): dose-dependent inhibition of MCF-7 cells at all tested concentrations, ranging from 1 μM to 10 μM

C[C@@H](Oc1ccc2c(-c3ccc(F)cc3Cl)cc(=O)oc2c1)C(=O)N1CCC[C@H](C(=O)O)C1 [Compound [I], 3-piperidinecarboxylic acid, 1-[(2R)-2-[[4-(2-chloro-4-fluorophenyl)-2-oxo-2H-1-benzopyran-7-yl]oxy]-1-oxopropyl]-, (3S)-, reference compound]
cytotoxicity towards BJ1-hTERT cells (SRB assay) (BJ1-hTERT cells [4]): did not exhibit cytotoxicity
cytotoxicity towards MCF-7 cells (SRB assay) (MCF-7 cells [5]): did not exhibit cytotoxicity
IC50 (MCF-7 cells [2]; Homo sapiens, MCF7): ~50 µM
inhibition at 100 µM (MCF-7 cells [2]; Homo sapiens, MCF7): > 50%
inhibition of MCF-7 cells (mammosphere formation) (MCF-7 cells [2]; at 5 μM): showed inhibition

CCCCCCCCCCCCCC(=O)Nc1cc(F)ccc1-c1cc(=O)oc2cc(O[C@H](C)C(=O)O)ccc12 [Compound [VII], (2R)-2-[4-[4-Fluoro-2-(tetradecanoylamino)phenyl]-2-oxo-chromen-7-yl]oxypropanoic acid]
cytotoxicity towards MCF-7 cells (SRB assay) (MCF-7 cells [1]): little toxicity across the tested concentrations below 100 μM
inhibition at 1 µM (MCF-7 cells [2]; Homo sapiens, MCF7, at 1 μM): > 50%
inhibition at 100 µM (MCF-7 cells [2]; Homo sapiens, MCF7): 100%
inhibition of MCF-7 cells across tested concentrations (mammosphere formation) (MCF-7 cells [2]): inhibitory activity can be seen at all tested concentrations, from 1 μM to 100 μM

CCCCCCCCCCCCCC(=O)Nc1ccc(-c2cc(=O)oc3cc(O[C@H](C)C(=O)O)ccc23)c(Cl)c1 [Compound [VI], (2R)-2-[4-[2-chloro-4-(tetradecanoylamino)phenyl]-2-oxo-chromen-7-yl]oxypropanoic acid]
cytotoxicity towards MCF-7 cells (SRB assay) (MCF-7 cells [1]): little toxicity across the tested concentrations
inhibition at 10 µM (MCF-7 cells [2]; Homo sapiens, MCF7, at 10 μM): > 50%
inhibition of MCF-7 cells across tested concentrations (mammosphere formation) (MCF-7 cells [2]): inhibitory activity can be seen at all tested concentrations, from 1 μM to 100 μM

CCCCCCCCCCCCCC(=O)Nc1ccc(-c2cc(=O)oc3cc(O[C@H](C)C(=O)N(CC)CC(=O)NCCN(C)C)ccc23)c(Cl)c1 [Compound [V], N-[3-Chloro-4-[7-[(1R)-2-[[2-[2-(dimethylamino)ethylamino]-2-oxo-ethyl]-ethyl-amino]-1-methyl-2-oxo-ethoxy]-2-oxo-chromen-4-yl]phenyl]tetradecanamide]
concentration at which cytotoxicity towards MCF-7 cells starts (SRB assay) (MCF-7 cells [1]): ≥ 5 µM
inhibition at 0.5 µM (MCF-7 cells [2]; Homo sapiens, MCF7, at 0.5 μM): > 50%
inhibition at 5 µM (MCF-7 cells [2]; Homo sapiens, MCF7, at 5 μM): 100%
inhibition of MCF-7 cells across tested concentrations (mammosphere formation) (MCF-7 cells [2]): effectively inhibited MCF-7 cells at all tested concentrations, ranging from 0.5 μM to 10 μM
concentration at which cytotoxicity towards BJ1-hTERT cells starts (SRB assay) (BJ1-hTERT cells [3]): ≥ 5 µM

tert-Butyl-N-[3-chloro-4-[7-[(1R)-2-[[2-[2-(dimethylamino)ethylamino]-2-oxo-ethyl]-ethyl-amino]-1-methyl-2-oxo-ethoxy]-2-oxo-chromen-4-yl]phenyl]carbamate [Compound [III]]
% Alive (chick embryo; 100 μM): 83.33%
% Dead (chick embryo; 100 μM): 16.67%
Alive (chick embryo; 100 μM): 15
Dead (chick embryo; 100 μM): 3
% Alive (chick embryo; 250 μM): 100%
% Dead (chick embryo; 250 μM): 0%
Alive (chick embryo; 250 μM): 18
Dead (chick embryo; 250 μM): 0
% Alive (chick embryo; 500 μM): 94.44%
% Dead (chick embryo; 500 μM): 5.56%
Alive (chick embryo; 500 μM): 17
Dead (chick embryo; 500 μM): 1
toxicity assessment (CAM assay) (chick embryo; in words): non-toxic towards normal cells
concentration at which cytotoxicity towards MCF-7 cells starts (SRB assay) (MCF-7 cells [1]): ≥ 10 µM
inhibition of MCF-7 cells across tested concentrations (mammosphere formation) (MCF-7 cells [2]): dose-dependent inhibition of MCF-7 cells at all tested concentrations, ranging from 1 μM to 10 μM
potency relative to Compound [I], MCF-7 mammosphere formation (MCF-7 cells [2]): twenty-fold improvement
ECAR levels (glycolysis) (adherent MCF7 cells [6]): largely comparable between the control and the demonstrative compound; also recorded: little or no effects on glycolysis
tumor growth (CAM assay) [7]: dose-dependent reduction in tumor growth
concentration at which cytotoxicity towards BJ1-hTERT cells starts (SRB assay) (BJ1-hTERT cells [3]): ≥ 10 µM
ATP production levels (adherent MCF7 cells [8]): significantly inhibited
basal OCR (basal respiration) (adherent MCF7 cells [8]): significantly inhibited
maximal OCR (maximal respiration) (adherent MCF7 cells [8]): significantly inhibited
metastatic invasion (CAM assay) [9]: dose-dependent reduction in metastasis
